Assay results as given in article PMC11596972, “Synthesis and Antimicrobial Activity of 3-Alkylidene-2-Indolone Derivatives” (Molecules, 2024).
In brackets after ≈: the same amount, converted by molar mass. Like-named read-outs stand apart in the source and are kept apart here.

Tests used:
P. aeruginosa CMCC 10211 = assay: MIC, double dilution method, P. aeruginosa CMCC 10211; format: cell-based; settings: Pseudomonas aeruginosa
E. coli 1924 = assay: MIC, double dilution method, E. coli 1924; format: cell-based, Escherichia coli
S. aureus 4220 = assay: MIC, double dilution method, S. aureus 4220; format: cell-based; settings: Staphylococcus aureus, 4220, 24 h
C. albicans CMCC 98001 = assay: MIC, double dilution method, C. albicans CMCC 98001; format: cell-based, Candida albicans; settings: for MIC: C. albicans CMCC 98001, fungus, 24 h culture
S. aureus ATCC 6538 = assay: MIC, double dilution method, S. aureus ATCC 6538; format: cell-based; settings: Staphylococcus aureus, ATCC6538, 24 h
MRSA ATCC 43300 = assay: MIC, double dilution method, MRSA ATCC 43300; format: cell-based, Methicillin-resistant Staphylococcus aureus; settings: Staphylococcus aureus, 24 h, MRSA ATCC 43300, Gram-positive, 24 h culture
E. coli ATCC 25922 = assay: MIC, double dilution method, E. coli ATCC 25922; format: cell-based; settings: Escherichia coli
[1] = CMCC10211, P. aeruginosa CMCC 10211, Gram-negative, 24 h culture, read-out: MIC
[2] = Escherichia coli, E. coli 1924, Gram-negative, 24 h culture, read-out: MIC
[3] = S. aureus 4220, Gram-positive, 24 h culture, read-out: MIC
[4] = Candida albicans, CMCC98001, 24 h, read-out: MIC
[5] = S. aureus ATCC 6538, Gram-positive, 24 h culture, read-out: MIC
[6] = ATCC25922, E. coli ATCC 25922, Gram-negative, 24 h culture, read-out: MIC
[7] = Candida albicans, CMCC98001, 24 h

| Structure (SMILES) | MIC (P. aeruginosa CMCC 10211; [1]) | MIC (E. coli 1924; [2]) | MIC (S. aureus 4220; [3]) | MIC (C. albicans CMCC 98001; [4]) | MIC (S. aureus ATCC 6538; [5]) | MIC (MRSA ATCC 43300; read-out: MIC) | MIC (E. coli ATCC 25922; [6]) | antifungal activity (class in words) (C. albicans CMCC 98001; C. albicans CMCC 98001) | MIC (C. albicans CMCC 98001) | MIC (P. aeruginosa CMCC 10211; CMCC10211, 24 h) | MIC (E. coli 1924; Escherichia coli, 1924, 24 h) | MIC (S. aureus 4220) | MIC (C. albicans CMCC 98001; [7]) | MIC (S. aureus ATCC 6538) | MIC (MRSA ATCC 43300) | MIC (E. coli ATCC 25922; ATCC25922, 24 h) |
| --- | --- | --- | --- | --- | --- | --- | --- | --- | --- | --- | --- | --- | --- | --- | --- | --- |
| C/C(O)=C1/C(=O)N(C)c2c(C)cccc21 [Compound 5b, (Z)-3-(1-hydroxyethylidene)-1,7-dimethylindolin-2-one] | 64 µg/mL (≈ 315 µM) | 32 µg/mL (≈ 157 µM) | > 64 µg/mL | 32 µg/mL (≈ 157 µM) | 64 µg/mL (≈ 315 µM) | > 64 µg/mL | 64 µg/mL (≈ 315 µM) | – | – | – | – | – | – | – | – | – |
| C/C(O)=C1/C(=O)N(C)c2ccc(F)cc21 [Compound 5g, (Z)-5-fluoro-3-(1-hydroxyethylidene)-1-methylindolin-2-one] | > 64 µg/mL | 64 µg/mL (≈ 309 µM) | > 64 µg/mL | 32 µg/mL (≈ 154 µM) | 64 µg/mL (≈ 309 µM) | > 64 µg/mL | > 64 µg/mL | – | – | – | – | – | – | – | – | – |
| COc1c(N2CCNC(C)C2)c(F)cc2c(=O)c(C(=O)O)cn(C3CC3)c12 (centres unmarked) [Gati, Gatifloxacin, reference compound] | 0.5 µg/mL (≈ 1.33 µM) | 0.5 µg/mL (≈ 1.33 µM) | 0.5 µg/mL (≈ 1.33 µM) | > 64 µg/mL | 0.5 µg/mL (≈ 1.33 µM) | 0.5 µg/mL (≈ 1.33 µM) | 0.5 µg/mL (≈ 1.33 µM) | – | – | – | – | – | – | – | – | – |
| C/C(O)=C1/C(=O)N(C)c2cc(C(F)(F)F)ccc21 [Compound 5r, (Z)-3-(1-hydroxyethylidene)-1-methyl-6-(trifluoromethyl)indolin-2-one] | > 64 µg/mL | > 64 µg/mL | 64 µg/mL (≈ 249 µM) | 8 to 16 µg/mL (≈ 31.1 to 62.2 µM) | – | – | > 64 µg/mL | moderate antifungal activity | 16 µg/mL (≈ 62.2 µM) | – | – | – | – | – | – | – |
| CN1C(=O)/C(=C(\O)c2ccc(Br)cc2)c2ccccc21 [Compound 10i, (Z)-3-((4-bromophenyl)(hydroxy)methylene)-1-methylindolin-2-one] | – | – | – | – | – | – | – | – | – | > 64 µg/mL | 8 µg/mL (≈ 24.2 µM) | 16 µg/mL (≈ 48.5 µM) | > 64 µg/mL | 2 µg/mL (≈ 6.06 µM) | 16 µg/mL (≈ 48.5 µM) | > 64 µg/mL |
| CN1C(=O)/C(=C(\O)c2ccccc2)c2ccccc21 [Compound 10b, (Z)-3-(hydroxy(phenyl)methylene)-1-methylindolin-2-one] | – | – | – | – | – | – | – | – | – | > 64 µg/mL | 8 µg/mL (≈ 31.8 µM) | 32 µg/mL (≈ 127 µM) | > 64 µg/mL | 8 µg/mL (≈ 31.8 µM) | 32 µg/mL (≈ 127 µM) | 64 µg/mL (≈ 255 µM) |
| COc1cccc2c1N(C)C(=O)/C2=C(/C)O [Compound 5o, (Z)-3-(1-hydroxyethylidene)-7-methoxy-1-methylindolin-2-one] | 64 µg/mL (≈ 292 µM) | 16 µg/mL (≈ 73 µM) | > 64 µg/mL | 32 µg/mL (≈ 146 µM) | > 64 µg/mL | 64 µg/mL (≈ 292 µM) | > 64 µg/mL | – | – | – | – | – | – | – | – | – |
| C/C(O)=C1/C(=O)N(C)c2c(F)cccc21 [Compound 5e, (Z)-7-fluoro-3-(1-hydroxyethylidene)-1-methylindolin-2-one] | > 64 µg/mL | 16 µg/mL (≈ 77.2 µM) | – | 32 µg/mL (≈ 154 µM) | 64 µg/mL (≈ 309 µM) | 64 µg/mL (≈ 309 µM) | > 64 µg/mL | – | – | – | – | – | – | – | – | – |
| C/C(O)=C1/C(=O)N(C)c2cc(F)ccc21 [Compound 5f, (Z)-6-fluoro-3-(1-hydroxyethylidene)-1-methylindolin-2-one] | > 64 µg/mL | 32 µg/mL (≈ 154 µM) | > 64 µg/mL | 64 µg/mL (≈ 309 µM) | > 64 µg/mL | > 64 µg/mL | > 64 µg/mL | – | – | – | – | – | – | – | – | – |
| COc1ccc(CN2C(=O)/C(=C(/C)O)c3ccccc32)cc1 [Compound 5w, (Z)-3-(1-hydroxyethylidene)-1-(4-methoxybenzyl)indolin-2-one] | > 64 µg/mL | 8 µg/mL (≈ 27.1 µM) | > 64 µg/mL | 32 µg/mL (≈ 108 µM) | 64 µg/mL (≈ 217 µM) | 64 µg/mL (≈ 217 µM) | > 64 µg/mL | – | – | – | – | – | – | – | – | – |
| C/C(O)=C1/C(=O)N(C)c2cc(Br)ccc21 [Compound 5m, (Z)-6-bromo-3-(1-hydroxyethylidene)-1-methylindolin-2-one] | > 64 µg/mL | 16 µg/mL (≈ 59.7 µM) | > 64 µg/mL | 64 µg/mL (≈ 239 µM) | 32 µg/mL (≈ 119 µM) | 64 µg/mL (≈ 239 µM) | > 64 µg/mL | – | – | – | – | – | – | – | – | – |
| C/C(O)=C1/C(=O)N(C)c2cc(Cl)ccc21 [Compound 5j, (Z)-6-chloro-3-(1-hydroxyethylidene)-1-methylindolin-2-one] | > 64 µg/mL | 8 µg/mL (≈ 35.8 µM) | 32 µg/mL (≈ 143 µM) | 64 µg/mL (≈ 286 µM) | – | > 64 µg/mL | > 64 µg/mL | – | – | – | – | – | – | – | – | – |
| C/C(O)=C1/C(=O)N(C)c2c(Br)cccc21 [Compound 5l, (Z)-7-bromo-3-(1-hydroxyethylidene)-1-methylindolin-2-one] | > 64 µg/mL | 8 µg/mL (≈ 29.8 µM) | 32 µg/mL (≈ 119 µM) | 64 µg/mL (≈ 239 µM) | 64 µg/mL (≈ 239 µM) | 64 µg/mL (≈ 239 µM) | > 64 µg/mL | – | – | – | – | – | – | – | – | – |
